Reference: patent US20070270393A1, “Methods and compositions for modulation of sleep cycle” (priority 2006, published 2007)

Columns and labels:
[1] = system: HPA axis activity in healthy control subject; test: 2 days of a GR antagonist in healthy control subject under constant routine conditions, salivary cortisol; format: in vivo, human; conditions: 400 mg for two consecutive days, single healthy subject, FIG. 5
Method: In a separate experiment, the longitudinal effects of 2 days of a GR antagonist on melatonin and HPA axis activity was measured in healthy control subject during an inpatient stay under constant routine conditions. […] Salivary cortisol, ACTH and dim light melatonin were measured the evening/morning before and on the second evening/morning of medication. The design was created to include measures of the phase of night-time DLMO as well as measures of the morning response of the HPA axis, including timing of cortisol acrophase. The design was formulated to ascertain circadian phase shifting in a controlled setting with healthy subjects (as might occur in jet-lag or shift work). […] Salivary melatonin samples were insufficient.

[2] = target: T1, glucocorticoid (GR) receptors (Homo sapiens, UniProt P04150); conditions: literature; cited from earlier work
T1 sequence (P04150 1-777): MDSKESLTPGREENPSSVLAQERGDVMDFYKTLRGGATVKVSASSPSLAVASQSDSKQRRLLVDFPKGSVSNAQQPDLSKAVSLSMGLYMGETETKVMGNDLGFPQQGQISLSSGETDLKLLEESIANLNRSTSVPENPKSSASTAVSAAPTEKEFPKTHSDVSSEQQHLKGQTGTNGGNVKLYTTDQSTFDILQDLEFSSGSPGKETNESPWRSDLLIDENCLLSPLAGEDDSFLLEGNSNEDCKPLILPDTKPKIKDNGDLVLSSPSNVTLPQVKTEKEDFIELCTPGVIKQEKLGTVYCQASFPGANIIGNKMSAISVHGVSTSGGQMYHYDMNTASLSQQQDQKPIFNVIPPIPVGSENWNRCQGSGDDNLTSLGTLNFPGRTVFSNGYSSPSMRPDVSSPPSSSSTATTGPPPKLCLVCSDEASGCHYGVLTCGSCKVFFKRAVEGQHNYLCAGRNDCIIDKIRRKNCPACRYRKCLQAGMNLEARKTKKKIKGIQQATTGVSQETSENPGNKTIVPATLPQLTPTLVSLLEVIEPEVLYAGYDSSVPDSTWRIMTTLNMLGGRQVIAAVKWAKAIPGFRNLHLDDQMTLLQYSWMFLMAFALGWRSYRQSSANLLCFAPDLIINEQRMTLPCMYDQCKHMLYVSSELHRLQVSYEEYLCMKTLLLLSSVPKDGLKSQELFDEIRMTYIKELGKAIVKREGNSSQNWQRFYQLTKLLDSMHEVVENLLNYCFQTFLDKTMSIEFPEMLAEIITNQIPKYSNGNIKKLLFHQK

CC#C[C@]1(O)CC[C@H]2[C@@H]3CCC4=CC(=O)CCC4=C3[C@@H](c3ccc(N(C)C)cc3)C[C@@]21C [mifepristone, 17-beta-hydroxy-11-beta-(4-dimethyl-aminophenyl)-17-alpha-(1-propynyl)-estra-4,9-dien-3-one]
cortisol [1]: rise | timing of the morning acrophase of cortisol [1]: delay | antagonist of glucocorticoid (GR) receptors [2]: powerful antagonist
